Experimental data as given in patent US9592210B2, “1-phenylalkanecarboxylic acid derivatives for the treatment of cognitive impairment” (Chiesi Farmaceutici S.p.A., priority 2011, dated 2017).
Like-named read-outs stand apart in the source and are kept apart here.

Key:
[1] = mice, oral; cited from earlier work
COX-1 = COX-1 (Homo sapiens, UniProt P23219); conditions: concentrations up to 100 μM; cited from earlier work
NICD-responsive genes = conditions: 100 μM; cited from earlier work
[2] = system: human neuroglioma cells over-expressing the Swedish mutated APP (H4swe); conditions: read-out: IC50 for lowering Aβ42 secretion; cited from earlier work
[3] = Morris water maze (preclinical); assay type: in vivo; conditions: preclinical study
[4] = Fear conditioning (preclinical); assay type: in vivo; conditions: preclinical studies
[5] = system: Notch intracellular cleavage in human embryonic kidney 293 swe cells; conditions: 5 μM; cited from earlier work
[6] = dogs, cited from earlier work
[7] = Object recognition test (preclinical); assay type: in vivo; conditions: preclinical stage
[8] = rats, oral; cited from earlier work
COX-2 = target: T1, COX-2 (Homo sapiens, UniProt P35354); conditions: concentrations up to 300 μM; cited from earlier work
T1 sequence (P35354 18-604): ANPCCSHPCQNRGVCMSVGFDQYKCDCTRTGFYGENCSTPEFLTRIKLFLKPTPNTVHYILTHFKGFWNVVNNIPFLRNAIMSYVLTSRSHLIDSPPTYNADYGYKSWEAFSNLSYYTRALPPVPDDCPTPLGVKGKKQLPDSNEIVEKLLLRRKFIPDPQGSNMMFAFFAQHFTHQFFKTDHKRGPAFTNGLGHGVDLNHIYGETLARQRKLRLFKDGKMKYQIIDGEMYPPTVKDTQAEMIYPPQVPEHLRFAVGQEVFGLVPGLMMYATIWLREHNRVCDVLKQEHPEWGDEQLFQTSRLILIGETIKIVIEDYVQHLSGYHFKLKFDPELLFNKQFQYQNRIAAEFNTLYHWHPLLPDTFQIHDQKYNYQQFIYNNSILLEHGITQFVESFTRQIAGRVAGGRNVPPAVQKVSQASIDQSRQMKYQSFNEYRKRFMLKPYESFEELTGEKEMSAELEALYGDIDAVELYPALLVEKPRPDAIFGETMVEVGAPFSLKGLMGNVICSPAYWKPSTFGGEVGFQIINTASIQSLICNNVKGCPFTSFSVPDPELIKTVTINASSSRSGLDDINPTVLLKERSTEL

[9] = guinea-pigs, cited from earlier work
[10] = system: transgenic mouse models of AD; conditions: cited from earlier work
[11] = species not given; follows mice and rats; cited from earlier work
γ-secretase [12] = conditions: cited from earlier work
AD patients = conditions: cited from earlier work
dendritic spine density = conditions: mice; cited from earlier work
γ-secretase [13] = conditions: cited from earlier work; remark: listed apart in the source

Chain of COX-1 (P23219 24-599): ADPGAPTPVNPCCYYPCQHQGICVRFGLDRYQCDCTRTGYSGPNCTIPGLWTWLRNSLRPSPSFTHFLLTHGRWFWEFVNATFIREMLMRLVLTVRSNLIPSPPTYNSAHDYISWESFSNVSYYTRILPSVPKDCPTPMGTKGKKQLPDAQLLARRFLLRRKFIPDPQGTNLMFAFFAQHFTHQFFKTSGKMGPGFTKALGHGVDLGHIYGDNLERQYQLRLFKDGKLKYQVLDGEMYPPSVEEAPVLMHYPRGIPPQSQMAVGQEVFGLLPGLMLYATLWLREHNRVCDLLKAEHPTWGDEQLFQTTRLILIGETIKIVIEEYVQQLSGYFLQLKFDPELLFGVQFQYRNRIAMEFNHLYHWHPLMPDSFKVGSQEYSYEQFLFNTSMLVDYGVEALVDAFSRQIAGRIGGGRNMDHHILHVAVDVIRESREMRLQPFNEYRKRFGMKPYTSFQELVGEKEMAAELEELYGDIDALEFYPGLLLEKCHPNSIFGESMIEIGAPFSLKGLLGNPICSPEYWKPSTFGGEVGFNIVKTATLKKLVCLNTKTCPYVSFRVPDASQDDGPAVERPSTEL

O=C(O)C1(c2ccc(-c3ccc(Cl)c(Cl)c3)c(F)c2)CC1 [CHF 5074, 1-(3′,4′-dichloro-2-fluorobiphenyl-4-yl)cyclopropanecarboxylic acid]
absorbed orally [1]: 74% | inhibitory activity on COX-1 (COX-1): does not display inhibitory activity | expression profile of several NICD-responsive genes (NICD-responsive genes): does not alter | IC50 [2]: 3.6 µM | Morris water maze performance [3]: marginal effects | fear conditioning performance [4]: significantly improved | effects on Notch intracellular cleavage [5]: no effects were observed | absorbed by oral route ([6]; oral): 80-100% | plasma elimination t1/2 [6]: ≈ 24 hours | object recognition test performance [7]: positive effects | absorbed orally [8]: 50% | inhibitory activity on COX-2 (COX-2): does not display inhibitory activity | plasma elimination half-life t1/2 ([9]; after oral administration): ≈ 30 hours | brain penetration [9]: 3-9% | tolerability ([10]; 60 mg/kg/day, prolonged treatment for 4-9 months, mice): well tolerated | neuropathological and behavioral activity ([10]; oral doses of 60 mg/kg/day): active from neuropathological and behavioral points of view | brain levels as % of corresponding plasma concentrations [11]: 3-14%

CC(C(=O)O)c1ccc(-c2ccccc2)c(F)c1 (stereo not drawn) [flurbiprofen]
formation of Aβ38 (γ-secretase [12]): increase | production of Aβ42 (γ-secretase [12]): lower

CC(C)Cc1ccc(C(C)C(=O)O)cc1 (stereo not drawn) [ibuprofen]
formation of Aβ38 (γ-secretase [12]): increase | production of Aβ42 (γ-secretase [12]): lower

COc1ccc2c(c1)c(CC(=O)O)c(C)n2C(=O)c1ccc(Cl)cc1 [indomethacin]
formation of Aβ38 (γ-secretase [12]): increase | production of Aβ42 (γ-secretase [12]): lower

CC(C)[C@H](O)C(=O)N[C@@H](C)C(=O)N[C@@H]1C(=O)N(C)CCc2ccccc21 [semagacestat]
cognition and ability to complete activities of daily living versus placebo (AD patients; interim analysis of two Phase 3 trials): worsened over time to a statistically significantly higher rate | rate of skin cancer compared to placebo (AD patients; two 21-month Phase 3 trials, more than 2,600 AD patients): increased rate of skin cancer | dendritic spine density (dendritic spine density): decrease | brain and CSF levels of Aβ42 peptide (γ-secretase [13]; brain and CSF): increase | brain level of C-terminal fragment of APP (CTFβ or C99) (γ-secretase [13]; brain): accumulation

CSc1ccc(/C=C2/C(C)=C(CC(=O)O)c3cc(F)ccc32)cc1 [sulindac sulfide]
formation of Aβ38 (γ-secretase [12]): increase | production of Aβ42 (γ-secretase [12]): lower
